# Test results from article PMC8217813, “Bridging Computational Vaccinology and Vaccine Development Through Systematic Identification, Characterization, and Downselection of Conserved and Variable Circumsporozoite Protein CD4 T Cell Epitopes From Diverse Plasmodium falciparum Strains” (Frontiers in Immunology, 2021).
# Peptide text beside a SMILES is read from it.
# Target: T1, HLA A*0101 (Homo sapiens, UniProt P04439, A114D/A174V/A182V/D101N/D185E/E176A/E190D/L180R/Q94H/R68K/S129P/T187R/V100A/V91M/W191G)
# T1 construct: Pure Protein, LLC (ran the assay)
# Assay: biochemical
# Type: binding
# Details: allele A0101; cell-free competition with fluorescently labeled control peptide, fluorescence polarization at 72 hours
row,Compound,IC50 (nM)
1,CC[C@H](C)[C@H](NC(=O)[C@H](CC(=O)O)NC(=O)[C@H](CC(N)=O)NC(=O)[C@H](C)NC(=O)[C@H](Cc1ccc(O)cc1)NC(=O)[C@H](CC(=O)O)NC(=O)[C@H](CC(C)C)NC(=O)[C@@H](N)CCC(=O)O)C(=O)N[C@@H](CCC(=O)O)C(=O)N[C@@H](CCCCN)C(=O)O [Cluster 357_3D7] (H-ELDYANDIEK-OH),Non-Binder
2,VTCGNGIQV [Cluster 336_3D7],Non-Binder
3,KMEKCSSVF [Cluster 370_3D7],Non-Binder
4,CC[C@H](C)[C@H](N)C(=O)N[C@@H](CCC(=O)O)C(=O)N[C@@H](CCC(N)=O)C(=O)N[C@@H](Cc1ccc(O)cc1)C(=O)N[C@@H](CC(C)C)C(=O)N[C@@H](CCCCN)C(=O)N[C@@H](CCCCN)C(=O)N[C@H](C(=O)N[C@@H](CCC(N)=O)C(=O)N[C@@H](Cc1ccc(O)cc1)C(=O)O)[C@@H](C)CC [Cluster 316_ICS7] (H-IEQYLKKIQY-OH),Non-Binder
5,NEEPSDKHIK [308_3D7 (10)],Non-Binder
6,ELDYENDIEK [Cluster 357_CVX154],Non-Binder
7,LSTEWSPCS [327_3D7 (9)],Non-Binder

# Same assay, conditions: allele A0101; cell-free competition with fluorescently labeled control peptide, fluorescence polarization at 72 hours; read-out: IC50
row,Compound,IC50 [µM]
1,CC[C@H](C)[C@H](NC(=O)[C@H](CC(=O)O)NC(=O)[C@H](CC(N)=O)NC(=O)[C@H](CCC(=O)O)NC(=O)[C@H](Cc1ccc(O)cc1)NC(=O)[C@H](CC(=O)O)NC(=O)[C@H](CC(C)C)NC(=O)[C@@H](N)CCC(N)=O)C(=O)N[C@@H](CCC(=O)O)C(=O)N[C@@H](CCCCN)C(=O)O [Cluster 357_CVX89] (H-QLDYENDIEK-OH),726
2,CC(C)[C@H](NC(=O)[C@H](CO)NC(=O)[C@H](CS)NC(=O)[C@@H]1CCCN1C(=O)[C@H](CO)NC(=O)[C@H](Cc1c[nH]c2ccccc12)NC(=O)[C@H](CCC(=O)O)NC(=O)[C@@H](NC(=O)[C@@H](N)CO)[C@@H](C)O)C(=O)O [Cluster 328_3D7] (H-STEWSPCSV-OH),3.18
3,CC[C@H](C)[C@H](NC(=O)[C@H](CO)NC(=O)[C@H](CO)NC(=O)[C@@H](N)CC(N)=O)C(=O)NCC(=O)N[C@@H](CC(C)C)C(=O)N[C@H](C(=O)N[C@@H](CCSC)C(=O)N[C@H](C(=O)O)C(C)C)[C@@H](C)CC [Cluster 382_3D7] (H-NSSIGLIMV-OH),215
4,CC(C)[C@H](NC(=O)[C@@H](N)CC(N)=O)C(=O)N[C@@H](CC(=O)O)C(=O)N[C@@H](CCC(=O)O)C(=O)N[C@@H](CC(N)=O)C(=O)N[C@@H](C)C(=O)N[C@@H](CC(N)=O)C(=O)N[C@@H](C)C(=O)N[C@@H](CC(N)=O)C(=O)N[C@@H](CC(N)=O)C(=O)O [Cluster 292_CVX337] (H-NVDENANANN-OH),667
5,CC(C)[C@H](NC(=O)[C@H](CO)NC(=O)[C@H](CO)NC(=O)[C@@H](N)CS)C(=O)N[C@@H](Cc1ccccc1)C(=O)N[C@@H](CC(N)=O)C(=O)N[C@H](C(=O)N[C@H](C(=O)N[C@@H](CC(N)=O)C(=O)O)C(C)C)C(C)C [Cluster 374_3D7] (H-CSSVFNVVN-OH),82.5

# Target: T2, HLA B*0702 (Homo sapiens, UniProt P01889)
# T2 construct: Pure Protein, LLC (ran the assay)
# Assay: biochemical
# Type: binding
# Details: allele B0702; cell-free competition with fluorescently labeled control peptide, fluorescence polarization at 72 hours
row,Compound,IC50 (nM)
1,KPGSANKPKD [Cluster 347_3D7],Non-Binder
2,NPNANPNAN [131_3D7 (9)],Non-Binder
3,NPNVDPNANP [Cluster 107_3D7],Non-Binder
4,NPNANPNANP [131_3D7 (10)],Non-Binder
5,SPCSVTCGNG [Cluster 332_3D7],Non-Binder
6,KMEKCSSVF [Cluster 370_3D7],Non-Binder
7,KPGSADKPKD [347_CVX69 (10)],Non-Binder

# Same assay, conditions: allele B0702; cell-free competition with fluorescently labeled control peptide, fluorescence polarization at 72 hours; read-out: IC50
row,Compound,IC50 [µM]
1,CSCC[C@H](N)C(=O)N1CCC[C@H]1C(=O)N[C@@H](CC(N)=O)C(=O)N[C@@H](CC(=O)O)C(=O)N1CCC[C@H]1C(=O)N[C@@H](CC(N)=O)C(=O)N[C@@H](CCCNC(=N)N)C(=O)N[C@@H](CC(N)=O)C(=O)N[C@H](C(=O)O)C(C)C [Cluster 285_3D7],511
2,C[C@H](NC(=O)[C@H](CO)NC(=O)CNC(=O)[C@@H]1CCCN1C(=O)[C@@H](N)CCCCN)C(=O)NCC(=O)N[C@@H](CCCCN)C(=O)N[C@@H](CO)C(=O)N[C@@H](CCCCN)C(=O)O [347_CVX36 (9)] (H-KPGSAGKSK-OH),53.1
3,CC[C@H](C)[C@H](NC(=O)[C@H](CCCNC(=N)N)NC(=O)[C@@H](NC(=O)[C@@H](N)CCC(N)=O)C(C)C)C(=O)N[C@@H](CCCCN)C(=O)N1CCC[C@H]1C(=O)NCC(=O)N[C@@H](CO)C(=O)N[C@@H](C)C(=O)O [Cluster 343_3D7] (H-QVRIKPGSA-OH),134

# Target: T3, HLA A*0301 (Homo sapiens, UniProt P04439)
# T3 construct: Pure Protein, LLC (ran the assay)
# Assay: In vitro class I HLA binding competition assay (fluorescence polarization)
# Details: not given
row,Compound,IC50 [µM]
1,CC[C@H](C)[C@H](NC(=O)[C@@H](N)CCCNC(=N)N)C(=O)N[C@@H](CCCCN)C(=O)N1CCC[C@H]1C(=O)NCC(=O)N[C@@H](CO)C(=O)N[C@@H](C)C(=O)N[C@@H](CC(=O)O)C(=O)N[C@@H](CCCCN)C(=O)O [Cluster 345_CVX79] (H-RIKPGSADK-OH),17.7
2,CC[C@H](C)[C@H](NC(=O)[C@@H](N)CCCNC(=N)N)C(=O)N[C@@H](CCCCN)C(=O)N1CCC[C@H]1C(=O)NCC(=O)N[C@@H](CO)C(=O)N[C@@H](C)C(=O)N[C@@H](CC(N)=O)C(=O)N[C@@H](CCCCN)C(=O)O [Cluster 345_3D7] (H-RIKPGSANK-OH),21.3
3,CC[C@H](C)[C@H](NC(=O)[C@H](CC(=O)O)NC(=O)[C@H](CC(N)=O)NC(=O)[C@H](C)NC(=O)[C@H](Cc1ccc(O)cc1)NC(=O)[C@H](CC(=O)O)NC(=O)[C@H](CC(C)C)NC(=O)[C@@H](N)CCC(=O)O)C(=O)N[C@@H](CCC(=O)O)C(=O)N[C@@H](CCCCN)C(=O)O [Cluster 357_3D7] (H-ELDYANDIEK-OH),556
4,CC(C)C[C@H](NC(=O)[C@@H](N)CCCCN)C(=O)N[C@@H](CCCNC(=N)N)C(=O)N[C@@H](CCCCN)C(=O)N1CCC[C@H]1C(=O)N[C@@H](CCCCN)C(=O)N[C@@H](Cc1c[nH]cn1)C(=O)N[C@@H](CCCCN)C(=O)N[C@@H](CCCCN)C(=O)O [CL1-61],3.06

# Same assay, conditions: allele A0301; cell-free competition with fluorescently labeled control peptide, fluorescence polarization at 72 hours
row,Compound,IC50 (nM)
1,IEKKICKMEK [Cluster 364_3D7],Non-Binder
2,CC[C@H](C)[C@H](NC(=O)[C@H](CC(=O)O)NC(=O)[C@H](CC(N)=O)NC(=O)[C@H](CCC(=O)O)NC(=O)[C@H](Cc1ccc(O)cc1)NC(=O)[C@H](CC(=O)O)NC(=O)[C@H](CC(C)C)NC(=O)[C@@H](N)CCC(N)=O)C(=O)N[C@@H](CCC(=O)O)C(=O)N[C@@H](CCCCN)C(=O)O [Cluster 357_CVX89] (H-QLDYENDIEK-OH),Non-Binder
3,NANPNANPNK [Cluster 265_3D7],Non-Binder
4,QLDYANDIEK [Cluster 357_CVX111],Non-Binder
5,KHIKEYLNK [Cluster 314_3D7],Non-Binder
6,LDYANDIEK [Cluster 358_3D7],Non-Binder
7,VTCGNGIQV [Cluster 336_3D7],Non-Binder

# Target: T4, HLA A*0201 (Homo sapiens, UniProt P04439, D140Y/D185E/D98H/E176V/E277Q/G131W/G231S/I119V/I121R/I166T/I218V/L300P/L318F/N151K/N90K/P208A/P217A/Q86G/Q94H/R138H/R169H/T345S)
# T4 construct: Pure Protein, LLC (ran the assay)
# Assay: biochemical
# Type: binding
# Details: not given
row,Compound,IC50 [µM]
1,CC[C@H](C)[C@H](NC(=O)[C@H](CCCCN)NC(=O)[C@H](CC(C)C)NC(=O)[C@@H](N)Cc1ccc(O)cc1)C(=O)N[C@H](C(=O)N[C@@H](CCC(N)=O)C(=O)N[C@@H](CC(N)=O)C(=O)N[C@@H](CO)C(=O)N[C@@H](CC(C)C)C(=O)O)[C@@H](C)CC [Cluster 319_ICS5] (H-YLKIIQNSL-OH),4.88

# Target: HLA B*4402 (Homo sapiens, UniProt P01889, A223V/A65T/A93T/A95T/D201E/D98Y/E176V/E187L/E204Q/E69K/G107R/H137Y/K202T/L105A/L119I/N104T/N87E/Q56L/Q94N/R106L/R155S/R180D/S101N/S121R/S35A/S48T/T118I/V36M/W191S/Y140D/Y91S)
# Assay: In vitro class I HLA binding competition assay (fluorescence polarization)
# Details: allele B4402; cell-free competition with fluorescently labeled control peptide, fluorescence polarization at 72 hours
# Description: The cell-free class I HLA binding assay in use at Pure Protein, LLC allows for in vitro quantification of peptide-HLA binding affinity in a competition format. In this assay, a fluorescently labeled, high binding, control peptide is loaded onto 384-well ½-area plates along with unlabeled experimental peptides. To remove endogenous peptides and render the HLA A and B molecules receptive to binding, HLA is heated at 53°C for 15 minutes and immediately added to the assay. The mixture is then allowed to stand for three days. Once the mixture has reached steady equilibrium (at 72 hours), displacement of the high binding control peptide is measured through Fluorescence Polarization. Binding of experimental peptides is expressed as the percent inhibition of the labeled control peptide (experimental fluorescence / control fluorescence, multiplied by 100). The percent inhibition values for each experimental peptide (across a range of molar concentrations) are used to calculate the concentration which inhibits 50% of the labeled control peptide’s specific binding. This value is referred to as the peptide’s IC50.
Compound,IC50 (nM),IC50 [µM]
NEEPSDQHI [Cluster 308_CVX99],Non-Binder,–
TEYLKKIQN [Cluster 317_ICS2],Non-Binder,–
TEWSPCSVT [Cluster 329_3D7],Non-Binder,–
CSCC[C@H](N)C(=O)N1CCC[C@H]1C(=O)N[C@@H](CC(N)=O)C(=O)N[C@@H](CC(=O)O)C(=O)N1CCC[C@H]1C(=O)N[C@@H](CC(N)=O)C(=O)N[C@@H](CCCNC(=N)N)C(=O)N[C@@H](CC(N)=O)C(=O)N[C@H](C(=O)O)C(C)C [Cluster 285_3D7],Non-Binder,–
CSCC[C@H](N)C(=O)N[C@@H](CCC(=O)O)C(=O)N[C@@H](CCCCN)C(=O)N[C@@H](CS)C(=O)N[C@@H](CO)C(=O)N[C@@H](CO)C(=O)N[C@H](C(=O)N[C@@H](Cc1ccccc1)C(=O)N[C@@H](CC(N)=O)C(=O)O)C(C)C [Cluster 371_3D7] (H-MEKCSSVFN-OH),–,143
KEYLNKIQNS [Cluster 317_3D7],Non-Binder,–
NEEPSDKHI [308_3D7(9)],Non-Binder,–
DENANANSA [Cluster 294_3D7],Non-Binder,–
CC[C@H](C)[C@H](NC(=O)[C@H](CC(=O)O)NC(=O)[C@H](CC(N)=O)NC(=O)[C@H](C)NC(=O)[C@H](Cc1ccc(O)cc1)NC(=O)[C@H](CC(=O)O)NC(=O)[C@H](CC(C)C)NC(=O)[C@H](CCC(=O)O)NC(=O)[C@@H](N)CC(=O)O)C(=O)O [Cluster 356_3D7] (H-DELDYANDI-OH),–,277
CC[C@H](C)[C@H](NC(=O)[C@H](CCCCN)NC(=O)[C@H](CCCCN)NC(=O)[C@H](CCC(=O)O)NC(=O)[C@@H](NC(=O)[C@H](CC(=O)O)NC(=O)[C@H](CC(N)=O)NC(=O)[C@H](CCC(=O)O)NC(=O)[C@@H](N)Cc1ccc(O)cc1)[C@@H](C)CC)C(=O)O [Cluster 360_CVX298] (H-YENDIEKKI-OH),–,7.36
CC[C@H](C)[C@H](N)C(=O)N[C@@H](CCC(=O)O)C(=O)N[C@@H](CCC(N)=O)C(=O)N[C@@H](Cc1ccc(O)cc1)C(=O)N[C@@H](CC(C)C)C(=O)N[C@@H](CCCCN)C(=O)N[C@@H](CCCCN)C(=O)N[C@H](C(=O)N[C@@H](CCC(N)=O)C(=O)N[C@@H](Cc1ccc(O)cc1)C(=O)O)[C@@H](C)CC [Cluster 316_ICS7] (H-IEQYLKKIQY-OH),–,157
KDELDYENDI [Cluster 355_CVX124],Non-Binder,–
NEEPSDKHIK [308_3D7 (10)],Non-Binder,–
C[C@H](NC(=O)[C@H](CC(N)=O)NC(=O)[C@H](CC(N)=O)NC(=O)[C@H](C)NC(=O)[C@H](CC(N)=O)NC(=O)[C@H](C)NC(=O)[C@H](CC(N)=O)NC(=O)[C@H](CCC(=O)O)NC(=O)[C@@H](N)CC(=O)O)C(=O)O [Cluster 294_CVX311] (H-DENANANNA-OH),–,896
